We go through 22 compounds from patent US12679822B2, “Alkenyl pyrimidine compound, preparation method therefor, and application thereof” (Hongyun Biotech Co., Ltd., priority 2020, dated 2026).

Bounds are passed on as bounds.

Common to all, as to assay type: cell-based
For test [1], the target named is BaF3 cell lines stably transfected with kinase EGFR L858R/T790M/C797S (Homo sapiens, UniProt P00533, T790M/C797S/L858R, cells depend on it). The experiment in a line: Growth inhibition of BaF3 cell line stably transfected with kinase EGFR L858R/T790M/C797S (MTS). To be noted: 48 h, read-out: growth inhibitory activity IC50, L858R/T790M/C797S. The method, then:
(§1) Biological Activity Assay: Growth Inhibitory Activity of Compounds on Cell Lines Stably Transfected with Kinase
(§2) The activity of compounds against various mutants of kinase EGFR was evaluated by their effect of inhibiting growth of BaF3 cell lines stably transfected with kinase. The specific test method was given as follows:
(§3) 1) Culture medium: DMEM (Dulbecco's modified eagle medium) or RPMI 1640 (containing 10% fetal bovine serum, 100 μg/mL ampicillin, 100 μg/mL streptomycin).
(§4) 2) Reagent: MTS reaction solution (containing 2 mg/mL of MTS [3-(4,5-di methylthiazol-2-yl)-5-(3-carboxymethoxyphenyl)-2-(4-sulfophenyl)-2H-tetrazolium, inner Salt]; 100 μg/mL of PES (phenazine […])).
(§5) 3) Compound test: cells were incubated into a 96-well culture plate, the volume of cytosol was 90 μL, and then 10 μL of the compound at each gradient concentration was added. That is, the highest concentration was 10 μM, which was diluted stepwise by ⅓, and 8 concentration points were set in total; 0.1% DMSO (dimethyl sulfoxide) was contained in the system. The cell plate with uniformly mixed compound was cultured in a cell culture incubator (37° C.; 5% […]) for 48 h, then 20 μL of MTS reaction solution was added, uniformly mixed and incubated in the cell culture incubator (37° C.; 5% CO2) for 1-4 h; OD values at 490 nm were measured by a microplate reader (VARIOSKAN FLASH, Thermo). Two parallels were set in each group of experiments, with 0.1% (a final concentration) DMSO as a negative control, and a culture medium without cells and compounds as a blank control. The cell growth inhibition rate was calculated by the following formula: Cell growth inhibition rate %=1−(ODexperimental group−ODblank group)/(ODnegative group−ODblank group)×100%.
(§6) 4) IC50 calculation: The semi-inhibitory concentration of the compounds acting on cells was calculated using GradPad Prism 5 software according to the measured cell growth inhibition rate.

Test [2] concerns the target BaF3 cell lines stably transfected with kinase EGFR Del (Homo sapiens, UniProt P00533, cells depend on it, form not given). The experiment in a line: Growth inhibition of BaF3 cell line stably transfected with kinase EGFR Del (MTS). To be noted: 48 h, read-out: growth inhibitory activity IC50, Del. The procedure:
as §1, §2, §3, §4, §5, §6

The target in test [3] is BaF3 cell lines stably transfected with kinase EGFR Del/T790M (Homo sapiens, UniProt P00533, T790M, cells depend on it, form not given). The test can be described thus: Growth inhibition of BaF3 cell line stably transfected with kinase EGFR Del/T790M (MTS). The conditions noted are these: 48 h, read-out: growth inhibitory activity IC50, Del/T790M. The procedure:
as §1, §2, §3, §4, §5, §6

Test [4] concerns the target BaF3 cell lines stably transfected with kinase EGFR Del/T790M/C797S (Homo sapiens, UniProt P00533, T790M/C797S, cells depend on it, form not given). The experiment in a line: Growth inhibition of BaF3 cell line stably transfected with kinase EGFR Del/T790M/C797S (MTS). To be noted: 48 h, read-out: growth inhibitory activity IC50, Del/T790M/C797S. The procedure: as §1, §2, §3, §4, §5, §6

The target in test [5] is BaF3 cell lines stably transfected with kinase EGFR L858R/T790M (Homo sapiens, UniProt P00533, T790M/L858R, cells depend on it). The experiment in a line: Growth inhibition of BaF3 cell line stably transfected with kinase EGFR L858R/T790M (MTS). The conditions noted are these: 48 h, read-out: growth inhibitory activity IC50, L858R/T790M. The procedure: as §1, §2, §3, §4, §5, §6

Test [6] addresses BaF3 cell lines stably transfected with kinase EGFR L858R (Homo sapiens, UniProt P00533, L858R, cells depend on it). The experiment in a line: Growth inhibition of BaF3 cell line stably transfected with kinase EGFR L858R (MTS). To be noted: 48 h, read-out: growth inhibitory activity IC50, L858R. The procedure:
as §1, §2, §3, §4, §5, §6

Sequence of BaF3 cell lines stably transfected with kinase EGFR L858R (P00533 whole entry L858R): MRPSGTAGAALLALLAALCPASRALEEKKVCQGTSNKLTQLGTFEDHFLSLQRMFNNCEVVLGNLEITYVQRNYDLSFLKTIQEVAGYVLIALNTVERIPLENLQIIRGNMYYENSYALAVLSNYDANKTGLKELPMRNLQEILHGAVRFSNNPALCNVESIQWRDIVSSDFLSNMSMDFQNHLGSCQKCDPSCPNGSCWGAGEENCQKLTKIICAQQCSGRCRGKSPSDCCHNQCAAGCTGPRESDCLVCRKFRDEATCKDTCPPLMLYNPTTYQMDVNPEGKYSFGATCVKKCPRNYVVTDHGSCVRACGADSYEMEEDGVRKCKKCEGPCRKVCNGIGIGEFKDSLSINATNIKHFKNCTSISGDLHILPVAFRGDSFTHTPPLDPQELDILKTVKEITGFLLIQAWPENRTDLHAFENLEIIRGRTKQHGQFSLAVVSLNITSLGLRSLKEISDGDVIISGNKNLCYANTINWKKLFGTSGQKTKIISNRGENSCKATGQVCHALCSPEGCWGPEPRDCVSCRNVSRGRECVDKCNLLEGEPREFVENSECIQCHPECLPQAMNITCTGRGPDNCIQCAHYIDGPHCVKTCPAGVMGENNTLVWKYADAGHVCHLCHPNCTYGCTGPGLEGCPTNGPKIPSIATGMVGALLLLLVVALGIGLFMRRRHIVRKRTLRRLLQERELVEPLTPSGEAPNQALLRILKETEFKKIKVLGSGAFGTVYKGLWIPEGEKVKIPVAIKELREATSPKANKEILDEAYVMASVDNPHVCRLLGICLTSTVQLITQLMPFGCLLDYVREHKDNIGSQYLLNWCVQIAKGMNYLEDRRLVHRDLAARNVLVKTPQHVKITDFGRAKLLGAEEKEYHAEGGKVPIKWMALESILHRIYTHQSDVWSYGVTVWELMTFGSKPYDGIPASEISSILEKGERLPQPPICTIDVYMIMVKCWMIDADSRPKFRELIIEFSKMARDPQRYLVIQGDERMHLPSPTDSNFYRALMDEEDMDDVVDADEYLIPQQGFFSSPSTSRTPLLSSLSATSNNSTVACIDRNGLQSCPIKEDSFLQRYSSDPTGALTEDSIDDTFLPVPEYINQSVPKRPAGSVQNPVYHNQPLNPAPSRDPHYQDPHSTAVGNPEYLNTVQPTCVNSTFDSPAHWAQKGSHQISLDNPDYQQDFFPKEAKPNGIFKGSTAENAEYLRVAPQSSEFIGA
Sequence of BaF3 cell lines stably transfected with kinase EGFR Del/T790M (P00533 with tags, fused parts or gaps DEL746-750/T790M, form open): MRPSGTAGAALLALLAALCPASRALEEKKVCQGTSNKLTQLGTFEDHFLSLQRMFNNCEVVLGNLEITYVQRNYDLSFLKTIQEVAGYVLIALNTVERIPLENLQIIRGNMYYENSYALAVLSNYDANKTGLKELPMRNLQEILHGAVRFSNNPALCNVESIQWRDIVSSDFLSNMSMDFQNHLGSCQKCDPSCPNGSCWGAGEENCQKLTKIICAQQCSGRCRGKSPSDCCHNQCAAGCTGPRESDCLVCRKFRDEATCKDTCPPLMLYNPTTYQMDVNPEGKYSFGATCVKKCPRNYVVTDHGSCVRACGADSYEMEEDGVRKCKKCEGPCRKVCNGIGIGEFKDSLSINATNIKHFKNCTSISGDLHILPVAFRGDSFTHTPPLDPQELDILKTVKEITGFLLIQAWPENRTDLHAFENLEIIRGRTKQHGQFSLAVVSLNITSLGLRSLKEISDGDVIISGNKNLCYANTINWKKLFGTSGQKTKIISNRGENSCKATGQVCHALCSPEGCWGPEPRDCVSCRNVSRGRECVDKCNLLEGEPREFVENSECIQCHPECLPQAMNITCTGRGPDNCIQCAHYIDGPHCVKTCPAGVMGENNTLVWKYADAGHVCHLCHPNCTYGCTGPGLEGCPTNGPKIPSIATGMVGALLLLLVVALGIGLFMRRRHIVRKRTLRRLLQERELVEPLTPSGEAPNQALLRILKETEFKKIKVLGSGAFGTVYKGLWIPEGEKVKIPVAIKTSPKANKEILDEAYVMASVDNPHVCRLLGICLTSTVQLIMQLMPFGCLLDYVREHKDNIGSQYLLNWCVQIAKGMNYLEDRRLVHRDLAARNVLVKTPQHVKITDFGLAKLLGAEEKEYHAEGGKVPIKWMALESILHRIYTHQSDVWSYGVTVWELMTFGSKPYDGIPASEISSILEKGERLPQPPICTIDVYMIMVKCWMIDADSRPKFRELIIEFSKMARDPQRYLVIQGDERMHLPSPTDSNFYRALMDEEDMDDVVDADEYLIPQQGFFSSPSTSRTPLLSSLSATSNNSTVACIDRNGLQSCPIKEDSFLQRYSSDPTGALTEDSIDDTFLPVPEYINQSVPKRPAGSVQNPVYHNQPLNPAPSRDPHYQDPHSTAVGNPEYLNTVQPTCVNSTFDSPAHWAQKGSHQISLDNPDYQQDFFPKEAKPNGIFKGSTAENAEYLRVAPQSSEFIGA
Sequence of BaF3 cell lines stably transfected with kinase EGFR Del/T790M/C797S (P00533 with tags, fused parts or gaps DEL746-750/T790M/C797S, form open): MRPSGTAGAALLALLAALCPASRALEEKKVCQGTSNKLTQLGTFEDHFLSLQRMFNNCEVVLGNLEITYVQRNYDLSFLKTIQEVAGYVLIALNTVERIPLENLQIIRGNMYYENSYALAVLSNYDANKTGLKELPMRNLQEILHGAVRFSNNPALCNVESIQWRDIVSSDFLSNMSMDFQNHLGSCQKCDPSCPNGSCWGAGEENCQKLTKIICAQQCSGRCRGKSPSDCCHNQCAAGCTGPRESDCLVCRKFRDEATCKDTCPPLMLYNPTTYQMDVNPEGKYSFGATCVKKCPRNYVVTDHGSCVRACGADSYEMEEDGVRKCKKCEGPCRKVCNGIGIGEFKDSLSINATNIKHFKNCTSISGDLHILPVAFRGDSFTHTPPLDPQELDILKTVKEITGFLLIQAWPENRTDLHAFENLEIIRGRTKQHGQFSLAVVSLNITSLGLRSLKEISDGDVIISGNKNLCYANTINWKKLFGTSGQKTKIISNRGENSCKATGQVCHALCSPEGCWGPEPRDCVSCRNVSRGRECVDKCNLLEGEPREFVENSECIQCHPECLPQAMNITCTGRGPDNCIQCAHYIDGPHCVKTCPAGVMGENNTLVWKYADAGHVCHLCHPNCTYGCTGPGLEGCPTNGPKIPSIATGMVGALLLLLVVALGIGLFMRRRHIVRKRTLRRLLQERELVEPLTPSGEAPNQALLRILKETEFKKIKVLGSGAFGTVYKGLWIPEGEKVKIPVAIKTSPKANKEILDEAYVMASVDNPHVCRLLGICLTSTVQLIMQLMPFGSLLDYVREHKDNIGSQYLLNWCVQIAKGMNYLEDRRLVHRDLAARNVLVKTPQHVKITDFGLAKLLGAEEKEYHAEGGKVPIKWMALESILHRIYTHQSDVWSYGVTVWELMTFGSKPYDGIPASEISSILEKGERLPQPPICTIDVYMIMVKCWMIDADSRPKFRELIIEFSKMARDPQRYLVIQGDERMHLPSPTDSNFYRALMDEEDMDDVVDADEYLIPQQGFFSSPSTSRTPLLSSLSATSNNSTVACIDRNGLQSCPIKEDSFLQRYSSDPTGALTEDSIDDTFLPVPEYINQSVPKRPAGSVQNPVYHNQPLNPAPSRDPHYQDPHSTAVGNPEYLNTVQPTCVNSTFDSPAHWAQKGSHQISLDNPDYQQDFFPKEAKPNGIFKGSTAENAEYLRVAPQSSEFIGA
Sequence of BaF3 cell lines stably transfected with kinase EGFR Del (P00533 with tags, fused parts or gaps DEL746-750): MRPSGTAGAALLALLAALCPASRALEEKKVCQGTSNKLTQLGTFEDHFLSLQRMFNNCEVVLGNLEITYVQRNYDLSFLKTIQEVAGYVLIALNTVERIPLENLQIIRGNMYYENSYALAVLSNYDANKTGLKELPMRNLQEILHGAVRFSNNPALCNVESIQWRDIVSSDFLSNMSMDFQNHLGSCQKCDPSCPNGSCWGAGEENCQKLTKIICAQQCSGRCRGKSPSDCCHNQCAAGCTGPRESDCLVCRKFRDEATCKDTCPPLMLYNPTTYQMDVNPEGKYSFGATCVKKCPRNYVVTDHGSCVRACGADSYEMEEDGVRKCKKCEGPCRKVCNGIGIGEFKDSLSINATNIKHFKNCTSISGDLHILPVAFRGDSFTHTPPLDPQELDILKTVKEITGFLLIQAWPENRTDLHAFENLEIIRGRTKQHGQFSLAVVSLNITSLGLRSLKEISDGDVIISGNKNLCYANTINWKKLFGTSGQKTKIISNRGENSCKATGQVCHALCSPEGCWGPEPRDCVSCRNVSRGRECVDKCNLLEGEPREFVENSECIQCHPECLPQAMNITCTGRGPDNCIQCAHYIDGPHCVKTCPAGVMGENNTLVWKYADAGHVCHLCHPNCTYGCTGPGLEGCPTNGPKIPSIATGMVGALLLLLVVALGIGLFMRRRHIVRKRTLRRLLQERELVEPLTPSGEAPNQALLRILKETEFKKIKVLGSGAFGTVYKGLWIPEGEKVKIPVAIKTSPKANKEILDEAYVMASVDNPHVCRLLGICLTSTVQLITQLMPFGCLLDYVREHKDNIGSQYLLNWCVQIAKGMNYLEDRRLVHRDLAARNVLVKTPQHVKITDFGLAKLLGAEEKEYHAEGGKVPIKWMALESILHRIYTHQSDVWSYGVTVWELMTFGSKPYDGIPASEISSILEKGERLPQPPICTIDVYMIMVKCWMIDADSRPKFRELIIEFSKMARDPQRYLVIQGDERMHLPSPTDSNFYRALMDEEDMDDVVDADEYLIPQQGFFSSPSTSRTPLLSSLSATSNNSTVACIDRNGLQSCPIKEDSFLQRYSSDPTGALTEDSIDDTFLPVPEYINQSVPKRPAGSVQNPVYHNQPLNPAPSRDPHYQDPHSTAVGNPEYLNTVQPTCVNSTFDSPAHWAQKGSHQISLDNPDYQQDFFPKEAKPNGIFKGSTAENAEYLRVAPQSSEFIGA

Turning to `C=Cc1cnc(Nc2cc(CC)c(N3CCC(N4CCN(C)CC4)CC3)cc2OC(F)(F)F)nc1Nc1ccc2nccnc2c1NS(C)(=O)=O` [II-34], the GI50 in test [1], in test [2], in test [3], in test [4], in test [5] and in test [6] was 50 to 500 nM throughout.
On to `C=Cc1cnc(Nc2cc(CC)c(N3CCC(N(C)C)CC3)cc2OC)nc1Nc1ccc2nccnc2c1S(C)(=O)=O` [III-2], for which the GI50 is 50 to 500 nM in test [1]; 500 to 2500 nM in test [2]; 50 to 500 nM in test [3]; 500 to 2500 nM in test [4]; 50 to 500 nM in test [5]; 500 to 2500 nM in test [6].
In the case of `C=Cc1cnc(Nc2cc(CC)c(N3CCC(N4CCN(C)CC4)CC3)cc2OC)nc1Nc1ccc2nccnc2c1N(CC)S(C)(=O)=O` [II-12], the GI50 in test [1], in test [2], in test [3], in test [4], in test [5] and in test [6] was ≤ 50 nM in each case.
`C=Cc1cnc(Nc2cc(CC)c(N3CCC(N4CCN(C)CC4)CC3)nc2OC)nc1Nc1ccc2nccnc2c1S(C)(=O)=O` [III-10]: the GI50 was 500 to 2500 nM in test [1]; 500 to 2500 nM in test [2]; 500 to 2500 nM in test [3]; 500 to 2500 nM in test [4]; 50 to 500 nM in test [5]; 500 to 2500 nM in test [6].
For the compound `C=Cc1cnc(Nc2cc(C(C)C)c(N3CCC(N4CCN(C)CC4)CC3)cc2OC)nc1Nc1ccc2nccnc2c1NS(C)(=O)=O` [II-35], the GI50 lay in the range of 50 to 500 nM in test [1]; 50 to 500 nM in test [2]; 50 to 500 nM in test [3]; 500 to 2500 nM in test [4]; 500 to 2500 nM in test [5]; 50 to 500 nM in test [6].
For `C=Cc1cnc(Nc2ccc(N3CCC(N4CCN(C)CC4)CC3)c(CC)c2)nc1Nc1ccc2nccnc2c1S(C)(=O)=O` [III-14], the GI50 in test [1] lay in the range of 50 to 500 nM; in test [2], 50 to 500 nM; in test [3], 50 to 500 nM; in test [4], 500 to 2500 nM; in test [5], 50 to 500 nM; in test [6], 50 to 500 nM.
As to `C=Cc1cnc(Nc2cc(C)n(C)n2)nc1Nc1ccc2nccnc2c1N(C)S(C)(=O)=O` [II-62], the GI50 was in the range of 50 to 500 nM in test [1]; 500 to 2500 nM in test [2]; 500 to 2500 nM in test [3]; 50 to 500 nM in test [4]; 500 to 2500 nM in test [5]; 500 to 2500 nM in test [6].
For `C=Cc1cnc(Nc2cc(CC)c(NCCN(C)C)cc2OC)nc1Nc1ccc2nccnc2c1N(C)S(C)(=O)=O` [II-50], the GI50 was in the range of 50 to 500 nM in test [1]; 500 to 2500 nM in test [2]; 50 to 500 nM in test [3]; 50 to 500 nM in test [4]; 50 to 500 nM in test [5]; 500 to 2500 nM in test [6].
For `C=C(C)c1cnc(Nc2cc(C(C)C)c(N3CCC(N4CCN(C)CC4)CC3)cc2OC)nc1Nc1ccc2nccnc2c1N(C)S(C)(=O)=O` [II-22], the GI50 in test [1] is 500 to 2500 nM; in test [2] it was 50 to 500 nM; in test [3] it was 50 to 500 nM; in test [4], 50 to 500 nM; in test [5], 50 to 500 nM; in test [6] it was 50 to 500 nM.
`CCc1cc(Nc2ncc(C=C(C)C)c(Nc3ccc4nccnc4c3N(C)S(C)(=O)=O)n2)c(OC)cc1N1CCC(N2CCN(C)CC2)CC1` [II-26]: the GI50 was 500 to 2500 nM in test [1]; ≤ 50 nM in test [2]; 500 to 2500 nM in test [3]; 500 to 2500 nM in test [4]; 500 to 2500 nM in test [5]; 50 to 500 nM in test [6].
As to `C=Cc1cnc(Nc2cc(CC)c(N3CCC(N(C)C)CC3)cc2OC)nc1Nc1ccc2nccnc2c1N(C)S(C)(=O)=O` [II-2], the GI50 in test [1], in test [2], in test [3], in test [4], in test [5] and in test [6] was ≤ 50 nM throughout.
With `C=Cc1cnc(Nc2cc(CC)c(N3CCC(N4CCN(C)CC4)CC3)cc2OC)nc1Nc1ccc2nccnc2c1N(C1CC1)S(C)(=O)=O` [II-14], the GI50 was ≤ 50 nM in test [1]; ≤ 50 nM in test [2]; ≤ 50 nM in test [3]; 50 to 500 nM in test [4]; ≤ 50 nM in test [5]; ≤ 50 nM in test [6].
For the compound `C=Cc1cnc(Nc2cc(C)c(N3CCC(N4CCN(C)CC4)CC3)cc2OC)nc1Nc1ccc2nccnc2c1P(C)(C)=O` [Compound I-9], the GI50 in test [1], in test [2], in test [3], in test [4], in test [5] and in test [6] was ≤ 50 nM throughout.
In the case of `C=Cc1cnc(Nc2cc(CC)c(N3CCC(N4CCN(C)CC4)CC3)cc2OC)nc1Nc1ccc2nccnc2c1NS(=O)(=O)C(C)C` [II-44], the GI50 in test [1] was ≤ 50 nM; in test [2], 50 to 500 nM; in test [3], 50 to 500 nM; in test [4], 50 to 500 nM; in test [5], 500 to 2500 nM; in test [6], 50 to 500 nM.
As to `C=Cc1cnc(Nc2cc(C(C)C)c(N3CCC(N4CCN(C)CC4)CC3)cc2OC)nc1Nc1ccc2nccnc2c1S(=O)(=O)NC` [IV-6], the GI50 was in the range of 500 to 2500 nM in test [1]; 500 to 2500 nM in test [2]; 50 to 500 nM in test [3]; 500 to 2500 nM in test [4]; 50 to 500 nM in test [5]; 500 to 2500 nM in test [6].
With `C=Cc1cnc(Nc2cc(C3CC3)c(N3CCC(N4CCN(C)CC4)CC3)cc2OC)nc1Nc1ccc2nccnc2c1S(C)(=O)=O` [III-12], the GI50 in test [1] is 50 to 500 nM; in test [2], 50 to 500 nM; in test [3], 50 to 500 nM; in test [4] it was 500 to 2500 nM; in test [5], 50 to 500 nM; in test [6] it was 500 to 2500 nM.
Consider `C=Cc1cnc(Nc2cc(F)c(N3CCC(N4CCN(C)CC4)CC3)c(F)c2)nc1Nc1ccc2nccnc2c1NS(C)(=O)=O` [II-46], for which the GI50 in test [1] was 50 to 500 nM; in test [2], 50 to 500 nM; in test [3] it was 50 to 500 nM; in test [4], 50 to 500 nM; in test [5] it was ≤ 50 nM; in test [6], 50 to 500 nM.
With `C=Cc1cnc(Nc2cc[nH]n2)nc1Nc1ccc2nccnc2c1N(C)S(C)(=O)=O` [II-59], the GI50 in test [1] was 500 to 2500 nM; in test [2], 50 to 500 nM; in test [3], 500 to 2500 nM; in test [4], 500 to 2500 nM; in test [5], 500 to 2500 nM; in test [6], 500 to 2500 nM.
Take `C=Cc1cnc(Nc2cc(CC)c(N3CCC(C4CN(C)C4)CC3)cc2OC)nc1Nc1ccc2nccnc2c1N(C)S(C)(=O)=O` [II-54]: the GI50 was ≤ 50 nM in test [1]; ≤ 50 nM in test [2]; ≤ 50 nM in test [3]; ≤ 50 nM in test [4]; 50 to 500 nM in test [5]; ≤ 50 nM in test [6].
For `C=Cc1cnc(Nc2cc(CC)c(N3CCC(N4CCN(C)CC4)CC3)cc2OC)nc1Nc1ccc2nccnc2c1S(=O)(=O)C(C)C` [III-6], the GI50 in test [1], in test [2], in test [3], in test [4], in test [5] and in test [6] was 50 to 500 nM each time.
Turning to `C=Cc1cnc(Nc2cc(C3CC3)c(N3CCC(N4CCN(C)CC4)CC3)cc2OC)nc1Nc1ccc2nccnc2c1P(C)(C)=O` [Compound I-17], the GI50 in test [1], in test [2], in test [3], in test [4], in test [5] and in test [6] was 50 to 500 nM in each case.
Turning to `C=Cc1cnc(Nc2cc(CC)c(N3CCC(N(C)C)C3)cc2OC)nc1Nc1ccc2nccnc2c1S(C)(=O)=O` (stereo not drawn) [III-3], the GI50 in test [1] is 500 to 2500 nM; in test [2], 500 to 2500 nM; in test [3] it was 500 to 2500 nM; in test [4], 500 to 2500 nM; in test [5] it was 50 to 500 nM; in test [6] it was 500 to 2500 nM.
